The values below come from EP4660190A1, “PHARMACEUTICALLY ACCEPTABLE SALT OF COMPOUND AND PREPARATION METHOD THEREFOR” (Jiangsu Chia Tai Fenghai Pharmaceutical Co., Ltd., priority 2023, dated 2024).

For data set [1] the following is noted: rat, value in literature, cited from earlier work.
The test system of data set [2] is Middle cerebral artery occlusion (MCAO) models of SD rats. The data set can be described thus: Rat MCAO model, 7 daily doses, TTC staining cerebral infarction. It is filed as in vivo. The text has this:
Middle cerebral artery occlusion (MCAO) models of SD rats were constructed using the suture occlusion method to evaluate the neuroprotective effect of the compound on neurons of rats after cerebral ischemia-reperfusion. […] The ECA was ligated. The ICA was temporarily occluded. Sutures were threaded at both the proximal end and the distal end of CCA. The distal end was securely ligated, and a loosely tied knot was placed at the proximal end. A small incision was made on the CCA between these two sutures. […] The threading was halted temporarily when reaching the artery clamp of ICA. The pre-ligation suture was further tightened. The artery clamp blocking the blood flow in the ICA was removed, allowing the suture occlusion to be advanced into the ICA until it entered the intracranial region. […] The insertion was stopped at the moment, and the time was recorded. The artery clamp on the CCA was removed and the incision was closed after no active bleeding was observed. The ischemic rats were placed at room temperature to keep their body temperature at 37°C, and anesthesia induction could be carried out 120min later. The suture was slowly and gradually withdrawn when the rats were maintained under anesthesia, so that the proximal end of the suture returned to the ECA, thereby initiating reperfusion of the middle cerebral artery. […] A single dose was administered immediately after reperfusion (within 10 minutes), followed by one dose per day for a total of 7 consecutive doses (including the first dose). Except for the initial administration, all subsequent doses were given between 4:00 PM and 7:00 PM each day. […] Animals were euthanized 7 days after ischemia reperfusion, and the brains were rapidly taken, frozen, and dissected for TTC staining. The normal tissues were rose-red after staining, and the infarcted tissues were white. The infarct size (%) percentage, calculated as the weight of infarcted tissues to the weight of the whole brain, is used to evaluate the degree of cerebral ischemic injury in rats. […] Table 12 Cerebral infarct size and cerebral infarction inhibition rate of experimental animals

The subject of data set [3] is Middle cerebral artery occlusion (MCAO) models of SD rata. The data set can be described thus: Rat MCAO model, 28-day dosing, novel object recognition test. The data set is classed as in vivo, SD rats. To be noted: test on D27, Mean±SD. The protocol: Middle cerebral artery occlusion (MCAO) models of SD rata were constructed by using the suture occlusion method. The rats were administered with the test compound for 28 consecutive days. The pharmacodynamic evaluation on the test compound for cerebral stroke was obtained based on general observation and neurobehavioral assessment. […] The ECA was ligated. The ICA was temporarily occluded. Sutures were threaded at both the proximal end and the distal end of CCA. The distal end was securely ligated, and a loosely tied knot was placed at the proximal end. A small incision was made on the CCA between these two sutures. […] The threading was halted temporarily when reaching the artery clamp of ICA. The pre-ligation suture was further tightened. The artery clamp blocking the blood flow in the ICA was removed, allowing the suture occlusion to be advanced into the ICA until it entered the intracranial region. […] The insertion was stopped at the moment, and the time was recorded. The artery clamp on the CCA was removed and the incision was closed after no active bleeding was observed. The ischemic rats were placed at room temperature to keep their body temperature at 37°C, and anesthesia induction could be carried out 120min later. The suture was slowly and gradually withdrawn under anesthesia until the proximal end retracted into the ECA, thereby initiating reperfusion of the middle cerebral artery. Animals received the designated dosage immediately (within 10 min) after reperfusion. This dosing regimen continued once daily for a duration of 28 days, with the day of operation being defined as D1 (Day 0). […] After the completion of the 28-day dosing period, all surviving animals in the study were euthanized, and their brains were rapidly collected for pathological analysis. […] Table 8 Results of Grid Walking Test (2) A novel object recognition test was performed on the last day of the treatment and the novel object recognition index (NRI) of animals in each group was calculated. […] The result has shown that Compound (I) has significant effect on animals with cognitive impairment caused by stroke (see details in Table 9). Table 9 Results of novel object recognition tests

A short description of data set [4]: Pharmacokinetic test in rats. The data set is classed as in vivo, Male SD rats. To be noted: rat; p.o. 10 mg/kg vs i.v. 1 mg/kg. The protocol:
Male SD rats (weighing 180-260g) were administered with the compound of formula (I) intravenously at a dose of 1.0 mg/kg via tail vein injection, and orally at a dose of 10.0 mg/kg. Each group consisted of 3 animals. The solvent for administration was a solution of 5% DMSO + 5% polyethoxylated castor oil (Cremophor EL) in normal saline. The rats were fasted for about 12 h before administration and were given ad libitum access to food 4 h after administration, and water was available all the time. Blood was collected from the orbit at about 0.2 mL before administration and 5 min, 15 min, 30 min, 1 h, 2 h, 4 h, 6 h, 8 h, and 24 h after administration. The samples were placed in EDTA-K2 anticoagulant EP tubes in an ice bath, and subjected to low-speed centrifugation at 4°C and 3500 rpm for 10 min to isolate plasma, which was then stored at -20°C before analysis. The plasma concentration of the compound of formula (I) was determined using liquid chromatography-tandem mass spectrometry (LC-MS/MS). Pharmacokinetic parameters were calculated from the analysis results of the samples using WinNonlin software.

Data set [5] relates to TDP-43-A315T transgenic mice of ALS model. The data set can be described thus: TDP-43-A315T ALS mice, muscle tone test. The data set is classed as in vivo. Particulars: Mean±SEM.
Data set [6] concerns rat spinal cord injury model. The data set can be described thus: Rat spinal cord injury model, Neurofilament 200 (NF200) expression. It is filed as in vivo, Male SD rats. To be noted: mean±SD, n=6.
Setting [7] is: 60mg/kg oral, 7 daily doses, 7 days after reperfusion, Mean±SD.

Where “and” joins values, the source holds several entries; their conditions need not be identical. Equal entries are not always repeated. Where two headings read alike, the source gives them in different places.

For the compound `CCCCC1OC(=O)c2ccccc21` (stereo not shown) [Butylphthalide, butylphthalide, reference compound], in data set [1] (i.v. 10 mg/kg), the AUC0-inf is 8620.0 ng·h/mL, the AUC0-t is 7230.0 ng·h/mL, the MRTinf is recorded as 2.4 h and the T1/2 was 2.2 h. In addition, in data set [1] (p.o. 60 mg/kg), the AUC0-inf is 8560.0 ng·h/mL; the AUC0-t was 7110.0 ng·h/mL; the peak concentration (Cmax) (as a rule, the peak of the concentration-time curve) is reported as 2900.0 ng/mL; the MRTinf is on record as 3.8 h. Further, in data set [1] (p.o. 60 mg/kg), the T1/2 is on record as 2.83 h and the Tmax – broadly, the time at which the peak concentration occurs – was 0.7 h. Also, in data set [2] (setting [7]), the “Cerebral infarction inhibition rate (%)” value was 28.624±14.597%, the “Infarct Size (%)” value worked out at 14.241±2.912% and the “Infarct area weight” value stood at 0.175 ± 0.032 g. For the same compound, in data set [3] (60mg/kg p.o. q.d.), the “Sniffing time (S) Familiar object” value turned out to be 1.60± 1.01 S and the “Sniffing time (S) Novel object” value worked out at 4.94± 3.60 S.

As to `CCC/C(O)=C1/C(=O)Oc2ccccc21` [Compound (I)], in data set [4], the F is reported as 144.2%. Moreover, in data set [3] (high dose 20mg/kg p.o. q.d.), the “Recognition index (%) Familiar object” value came to 28.34± 17.06%, the “Sniffing time (S) Familiar object” value amounted to 2.20± 1.66 S and the “Sniffing time (S) Novel object” value turned out to be 5.62± 3.60 S. The “Recognition index (%) Novel object” value in data set [3] (high dose 20mg/kg p.o. q.d., 20 mg/kg) is listed as 71.66±17.06%. Also, in data set [3] (low dose 6mg/kg p.o. q.d.), the “Recognition index (%) Familiar object” value is listed as 29.02± 22.60%, the “Sniffing time (S) Familiar object” value came out at 1.54± 1.10 S and the “Sniffing time (S) Novel object” value was determined as 4.74± 3.61 S. The “Recognition index (%) Novel object” value in data set [3] (low dose 6mg/kg p.o. q.d., 6 mg/kg) was determined as 70.98±22.60%.

Regarding “(Z)-3-(1-hydroxybutenyl)benzofuran-2-one tromethamine salt [Example 10]”, the “Muscle Tone” value in data set [5] (female mice, 20mg/kg, animal age 6 weeks) was found to be 165.4 ± 7.815 g; in data set [5] (female mice, 20mg/kg, animal age 8 weeks), 190.2 ± 14.13 g; in data set [5] (female mice, 20mg/kg, animal age 10 weeks), 153.7 ± 8.355 g; in data set [5] (female mice, 20mg/kg, animal age 12 weeks) it was 159.4 ± 13.21 g; in data set [5] (female mice, 20mg/kg, animal age 13 weeks), 149.8 ± 4.815 g; in data set [5] (female mice, 20mg/kg, animal age 14 weeks), 150.9 ± 6.940 g. In addition, the “Muscle Tone” value in data set [5] (female mice, 20mg/kg, animal age 16 weeks) came to 159.5 ± 7.125 g; in data set [5] (female mice, 40mg/kg p.o., animal age 6 weeks), 155.8 ± 3.677 g; in data set [5] (female mice, 40mg/kg p.o., animal age 8 weeks), 190.6 ± 10.24 g; in data set [5] (female mice, 40mg/kg p.o., animal age 10 weeks) it was 147.8 ± 7.822 g; in data set [5] (female mice, 40mg/kg p.o., animal age 12 weeks), 154.3 ± 6.584 g; in data set [5] (female mice, 40mg/kg p.o., animal age 13 weeks), 148.1 ± 4.851 g. Moreover, the “Muscle Tone” value in data set [5] (female mice, 40mg/kg p.o., animal age 14 weeks) was 161.6 ± 2.816 g; in data set [5] (female mice, 40mg/kg p.o., animal age 16 weeks), 155.2 ± 3.339 g; in data set [5] (male mice, 40mg/kg p.o., animal age 6 weeks) it was 155.4 ± 6.495 g; in data set [5] (male mice, 40mg/kg p.o., animal age 8 weeks), 170.9 ± 6.777 g; in data set [5] (male mice, 40mg/kg p.o., animal age 10 weeks), 155.6 ± 8.359 g; in data set [5] (male mice, 40mg/kg p.o., animal age 12 weeks), 123.1 ± 18.21 g. Also, the “Muscle Tone” value worked out at 120.8 ± 12.91 g in data set [5] (male mice, 40mg/kg p.o., animal age 13 weeks); 89.72 ± 19.04 g in data set [5] (male mice, 40mg/kg p.o., animal age 14 weeks); 175.7 ± 7.244 g in data set [5] (male mice, 60mg/kg p.o., animal age 6 weeks); 177.0 ± 5.555 g in data set [5] (male mice, 60mg/kg p.o., animal age 8 weeks); 155.93 ± 4.345 g in data set [5] (male mice, 60mg/kg p.o., animal age 10 weeks); 136.8 ± 16.00 g in data set [5] (male mice, 60mg/kg p.o., animal age 12 weeks). Also, the “Muscle Tone” value in data set [5] (male mice, 60mg/kg p.o., animal age 13 weeks) was found to be 149.8 ± 3.710 g; in data set [5] (male mice, 60mg/kg p.o., animal age 14 weeks), 149.8 ± 2.045 g. For the same compound, the figures for the “Positive Count (number per field of view)” value in data set [6] (high dose 20 mg/kg) and in data set [6] (low dose 5 mg/kg) were 30.3±7.4 number per field of view and 22.5± 7.5 number per field of view, respectively. Besides, in data set [2] (rat, in vivo), the “Cerebral infarction inhibition rate (%)” value was 26.236± 12.737% and 31.023± 11.150%. In data set [2] (rat, in vivo), the “Infarct Size (%)” value was 14.717±2.541 % and 13.762±2.225 %. Also, in data set [2] (rat, in vivo), the “Infarct area weight” value is 0.183 ± 0.036 g and 0.176 ± 0.030 g.
